Test results reported in ChEMBL document CHEMBL1909046, “DrugMatrix in vitro pharmacology data”.

Experiments:
B2 bradykinin receptor = molecular target: T1, B2 bradykinin receptor (Homo sapiens, UniProt P30411); assay type: cell membranes, Membrane; conditions: chem-1; note: in other assays of this panel Not Active means under 50% inhibition at 10 µM
T1 sequence (P30411 whole entry): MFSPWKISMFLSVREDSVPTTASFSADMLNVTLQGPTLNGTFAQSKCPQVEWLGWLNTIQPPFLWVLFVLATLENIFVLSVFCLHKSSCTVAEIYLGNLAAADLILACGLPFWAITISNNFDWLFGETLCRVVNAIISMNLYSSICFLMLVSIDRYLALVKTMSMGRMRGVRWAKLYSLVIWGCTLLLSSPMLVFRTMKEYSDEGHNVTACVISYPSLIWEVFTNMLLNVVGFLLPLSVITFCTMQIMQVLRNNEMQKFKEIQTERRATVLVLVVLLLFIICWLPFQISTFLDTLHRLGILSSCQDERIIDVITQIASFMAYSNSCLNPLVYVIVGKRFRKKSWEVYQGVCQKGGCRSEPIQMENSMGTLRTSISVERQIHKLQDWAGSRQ

Calcitonin receptor = molecular target: T2, Calcitonin receptor (Homo sapiens, UniProt P30988); assay type: cell membranes, Membrane; conditions: t47d; note: in other assays of this panel Not Active means under 50% inhibition at 10 µM
T2 sequence (P30988 whole entry): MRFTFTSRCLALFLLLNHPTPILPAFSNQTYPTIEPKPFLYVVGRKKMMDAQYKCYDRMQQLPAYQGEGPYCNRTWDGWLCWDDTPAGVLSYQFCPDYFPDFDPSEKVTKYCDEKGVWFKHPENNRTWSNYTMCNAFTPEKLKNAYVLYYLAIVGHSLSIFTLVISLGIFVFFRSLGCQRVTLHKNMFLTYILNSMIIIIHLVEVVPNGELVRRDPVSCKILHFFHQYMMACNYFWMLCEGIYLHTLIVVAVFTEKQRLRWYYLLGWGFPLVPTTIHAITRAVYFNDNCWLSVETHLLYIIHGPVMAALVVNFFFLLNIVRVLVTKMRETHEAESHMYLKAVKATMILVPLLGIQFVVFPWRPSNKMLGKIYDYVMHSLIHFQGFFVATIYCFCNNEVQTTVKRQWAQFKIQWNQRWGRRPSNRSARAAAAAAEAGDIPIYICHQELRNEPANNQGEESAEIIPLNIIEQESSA

[1] = molecular target: 5-hydroxytryptamine receptor 2B (Homo sapiens, UniProt P41595); assay type: cell membranes, CHO-K1, Membrane; conditions: cho-k1; note: in other assays of this panel Not Active means under 50% inhibition at 10 µM
Chain of 5-hydroxytryptamine receptor 2B (P41595 whole entry): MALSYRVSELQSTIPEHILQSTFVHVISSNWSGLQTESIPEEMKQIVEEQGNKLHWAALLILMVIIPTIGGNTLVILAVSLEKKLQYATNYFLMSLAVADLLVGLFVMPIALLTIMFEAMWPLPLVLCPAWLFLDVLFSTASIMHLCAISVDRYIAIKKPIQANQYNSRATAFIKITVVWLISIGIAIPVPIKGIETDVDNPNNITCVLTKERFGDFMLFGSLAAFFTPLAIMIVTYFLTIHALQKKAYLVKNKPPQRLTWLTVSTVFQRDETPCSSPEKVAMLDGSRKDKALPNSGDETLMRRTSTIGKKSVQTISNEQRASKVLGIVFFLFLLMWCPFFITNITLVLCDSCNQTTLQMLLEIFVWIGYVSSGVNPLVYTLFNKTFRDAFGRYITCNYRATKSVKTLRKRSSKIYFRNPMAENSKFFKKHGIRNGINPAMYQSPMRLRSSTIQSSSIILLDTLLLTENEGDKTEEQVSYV

[2] = DRUGMATRIX: Sigma2 radioligand binding (ligand: [3H] Ifenprodil); assay type: cell membranes, Rattus norvegicus, Wistar, Brain, Membrane; conditions: Not Active = under 50% inhibition at 10 µM
[3] = DRUGMATRIX: Calcium Channel Type L, Phenylalkylamine radioligand binding (ligand: [3H] (-)-Desmethoxyverapamil (D-888)); assay type: cell membranes, Rattus norvegicus, Wistar, Brain, Membrane; conditions: Not Active = under 50% inhibition at 10 µM
Carbonic anhydrase 2 = Carbonic anhydrase 2 (Homo sapiens, UniProt P00918); assay: DRUGMATRIX: Carbonic Anhydrase II enzyme inhibition (substrate: 4-Nitrophenyl acetate (4-NPA)); assay type: tissue-based, Erythrocyte; conditions: erythrocyte; Not Active = under 50% inhibition at 10 µM
[4] = molecular target: Prostaglandin G/H synthase 1 (Homo sapiens, UniProt P23219); assay: biochemical; assay type: tissue-based, Platelet; conditions: platelet;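 note: inhibition of COX-1 enzyme activity, with arachidonic acid supplied as substrate; in other assays of this panel Not Active means under 50% inhibition at 10 µM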
Chain of Prostaglandin G/H synthase 1 (P23219 whole entry): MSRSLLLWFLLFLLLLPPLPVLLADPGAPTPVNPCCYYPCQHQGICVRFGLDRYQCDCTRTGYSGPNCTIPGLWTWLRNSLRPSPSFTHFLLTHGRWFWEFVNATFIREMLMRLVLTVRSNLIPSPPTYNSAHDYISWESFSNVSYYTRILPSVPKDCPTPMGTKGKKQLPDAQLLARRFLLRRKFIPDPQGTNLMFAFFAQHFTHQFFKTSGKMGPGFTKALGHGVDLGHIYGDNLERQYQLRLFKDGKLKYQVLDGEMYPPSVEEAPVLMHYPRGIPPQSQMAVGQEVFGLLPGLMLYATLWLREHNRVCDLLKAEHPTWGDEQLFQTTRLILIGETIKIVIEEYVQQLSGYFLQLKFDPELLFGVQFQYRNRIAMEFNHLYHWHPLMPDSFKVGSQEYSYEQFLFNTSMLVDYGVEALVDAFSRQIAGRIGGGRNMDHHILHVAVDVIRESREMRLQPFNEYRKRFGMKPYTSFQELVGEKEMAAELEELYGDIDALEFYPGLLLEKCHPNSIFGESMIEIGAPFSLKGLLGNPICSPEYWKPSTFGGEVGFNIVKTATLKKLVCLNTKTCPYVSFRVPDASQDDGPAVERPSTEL

[5] = DRUGMATRIX: Phosphodiesterase PDE4 enzyme inhibition (substrate: [3H]cAMP + cAMP); conditions: u-937; Not Active = under 50% inhibition at 10 µM
[6] = DRUGMATRIX: Potassium Channel [KATP] radioligand binding (ligand: [3H] Glyburide); assay type: cell membranes, Membrane; conditions: hit-t15; Not Active = under 50% inhibition at 10 µM
Interstitial collagenase = molecular target: T3, Interstitial collagenase (Homo sapiens, UniProt P03956); assay type: tissue-based, Rheumatoid synovial fibroblasts
T3 sequence (P03956 whole entry): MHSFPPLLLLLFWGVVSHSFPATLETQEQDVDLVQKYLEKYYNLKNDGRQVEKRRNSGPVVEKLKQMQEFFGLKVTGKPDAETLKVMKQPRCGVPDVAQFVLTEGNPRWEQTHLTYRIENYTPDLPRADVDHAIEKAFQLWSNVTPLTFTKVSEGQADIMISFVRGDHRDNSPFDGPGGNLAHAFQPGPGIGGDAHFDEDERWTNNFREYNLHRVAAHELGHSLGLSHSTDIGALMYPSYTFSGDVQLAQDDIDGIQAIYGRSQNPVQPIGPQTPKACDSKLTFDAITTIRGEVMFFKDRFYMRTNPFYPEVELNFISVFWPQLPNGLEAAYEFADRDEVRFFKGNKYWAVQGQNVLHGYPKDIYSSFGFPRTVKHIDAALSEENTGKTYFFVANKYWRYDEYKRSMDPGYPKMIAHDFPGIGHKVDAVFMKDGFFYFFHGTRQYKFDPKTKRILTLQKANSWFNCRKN

Adenosine receptor A3 = molecular target: T4, Adenosine receptor A3 (Homo sapiens, UniProt P0DMS8); assay type: cell membranes, CHO-K1, Membrane
T4 sequence (P0DMS8 whole entry): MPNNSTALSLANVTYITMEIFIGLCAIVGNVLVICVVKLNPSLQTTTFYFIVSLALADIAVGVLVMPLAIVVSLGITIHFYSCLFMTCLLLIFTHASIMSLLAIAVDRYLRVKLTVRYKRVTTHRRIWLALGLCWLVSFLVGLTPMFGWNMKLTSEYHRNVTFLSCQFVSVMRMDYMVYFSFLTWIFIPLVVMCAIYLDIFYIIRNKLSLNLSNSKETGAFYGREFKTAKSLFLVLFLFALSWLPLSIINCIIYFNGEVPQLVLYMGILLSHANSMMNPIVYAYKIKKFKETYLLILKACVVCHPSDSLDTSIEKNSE

SMILES	IC50 (B2 bradykinin receptor)	IC50 (Calcitonin receptor)	IC50 [1]	IC50 [2]	Ki [2]	IC50 [3]	Ki [3]	IC50 (Carbonic anhydrase 2)	IC50 [4]	IC50 [5]	Ki [5]	IC50 [6]	Ki [6]	IC50 (Interstitial collagenase)	IC50 (Adenosine receptor A3; cho-k1)	IC50 (Adenosine receptor A3; read-out: IC50) [nM]	Ki (Adenosine receptor A3; read-out: Ki) [nM]
CC(C)n1c(/C=C/C(O)CC(O)CC(=O)O)c(-c2ccc(F)cc2)c2ccccc21 (stereo unspecified) [FLUVASTATIN]	Not Active	Not Active	Not Active	Not Active	Not Active	Not Active	Not Active	Not Active	Not Active	Not Active	Not Active	Not Active	Not Active	Not Active	Not Active	–	–
CC(=O)OCC(=O)[C@@]1(OC(C)=O)[C@@H](C)C[C@H]2[C@@H]3C[C@H](F)C4=CC(=O)C=C[C@]4(C)[C@@]3(F)[C@@H](O)C[C@@]21C [DIFLORASONE DIACETATE]	Not Active	Not Active	Not Active	Not Active	Not Active	Not Active	Not Active	Not Active	Not Active	Not Active	Not Active	Not Active	Not Active	Not Active	Not Active	–	–
c1ccc2c(c1)cc1ccc3cccc4ccc2c1c34	Not Active	Not Active	Not Active	Not Active	Not Active	Not Active	Not Active	Not Active	Not Active	Not Active	Not Active	Not Active	Not Active	Not Active	Not Active	–	–
COc1ccc2c(c1)c(CC(=O)OCC(=O)O)c(C)n2C(=O)c1ccc(Cl)cc1 [ACEMETACIN]	Not Active	Not Active	Not Active	Not Active	Not Active	Not Active	Not Active	Not Active	Not Active	Not Active	Not Active	Not Active	Not Active	Not Active	Not Active	–	–
N=C(N)NCCCCNC(=N)N.O=S(=O)(O)O [ARCAINE SULFATE]	Not Active	Not Active	Not Active	Not Active	Not Active	Not Active	Not Active	Not Active	Not Active	Not Active	Not Active	Not Active	Not Active	Not Active	Not Active	–	–
CCOC(=O)c1ccc(N)cc1 [BENZOCAINE]	Not Active	Not Active	Not Active	Not Active	Not Active	Not Active	Not Active	Not Active	Not Active	Not Active	Not Active	Not Active	Not Active	Not Active	Not Active	–	–
COc1c(N2CCNC(C)C2)c(F)cc2c(=O)c(C(=O)O)cn(C3CC3)c12 (stereo unspecified) [GATIFLOXACIN]	Not Active	Not Active	Not Active	Not Active	Not Active	Not Active	Not Active	Not Active	Not Active	Not Active	Not Active	Not Active	Not Active	Not Active	Not Active	–	–
CC[N+](CC)(CC)CCOc1cccc(OCC[N+](CC)(CC)CC)c1OCC[N+](CC)(CC)CC.[I-].[I-].[I-] [GALLAMINE TRIETHIODIDE]	Not Active	Not Active	Not Active	Not Active	Not Active	Not Active	Not Active	Not Active	Not Active	Not Active	Not Active	Not Active	Not Active	Not Active	Not Active	–	–
CC1(C)[C@@H](O[C@H]2O[C@H](C(=O)O)[C@@H](O)[C@H](O)[C@H]2O[C@@H]2O[C@H](C(=O)O)[C@@H](O)[C@H](O)[C@H]2O)CC[C@]2(C)[C@H]3C(=O)C=C4[C@@H]5C[C@@](C)(C(=O)O)CC[C@]5(C)CC[C@@]4(C)[C@]3(C)CC[C@@H]12 [GLYCYRRHIZIN]	Not Active	Not Active	Not Active	Not Active	Not Active	Not Active	Not Active	Not Active	Not Active	Not Active	Not Active	Not Active	Not Active	Not Active	Not Active	–	–
CCCCCCCCCc1ccc(O)cc1 [4-NONYLPHENOL]	Not Active	Not Active	Not Active	Not Active	Not Active	Not Active	Not Active	Not Active	Not Active	Not Active	Not Active	Not Active	Not Active	Not Active	–	1920	1080
CC1COc2c(N3CCN(C)CC3)c(F)cc3c(=O)c(C(=O)O)cn1c23 (stereo unspecified) [OFLOXACIN]	Not Active	Not Active	Not Active	Not Active	Not Active	Not Active	Not Active	Not Active	Not Active	Not Active	Not Active	Not Active	Not Active	Not Active	Not Active	–	–
